The values below come from publication PMC2799336 (Journal of the American Chemical Society, 2009).

Test [1] deals with T1, E. coli lipoic acid ligase (LplA) (Escherichia coli, UniProt P32099). Put plainly: HPLC kinetics of LplA-catalyzed lipoylation. The format is biochemical.
In test [2] the test system is LplA. The conditions noted are these: 1:10, 1:100, 1:1000 mixtures of E2p:LAP1; 300 nM LplA, 30 minutes; PCR analysis.
The target of test [3] is T1, E. coli lipoic acid ligase (LplA). The conditions noted are these: azide 7 ligation; cited from earlier work.
Test [4] relates to LplA. The conditions noted are these: cited from earlier work.
Test [5] relates to LplA.
The test system of test [6] is LplA. The conditions noted are these: LAP2 fused to the C- rather than N-terminus of HP1; 50 nM LplA, 1 hour, 30 °C; HPLC.
Test [7] has as its system biotin ligase (BirA). The settings on record: 12 hour reaction with 5 μM BirA; HPLC; data not shown.
Test [8] deals with HeLa mammalian cells. Put plainly: Surface expression of LAP-CFP-TM fusions in mammalian cells. The settings on record: CFP fluorescence.

T1 sequence (P32099 whole entry): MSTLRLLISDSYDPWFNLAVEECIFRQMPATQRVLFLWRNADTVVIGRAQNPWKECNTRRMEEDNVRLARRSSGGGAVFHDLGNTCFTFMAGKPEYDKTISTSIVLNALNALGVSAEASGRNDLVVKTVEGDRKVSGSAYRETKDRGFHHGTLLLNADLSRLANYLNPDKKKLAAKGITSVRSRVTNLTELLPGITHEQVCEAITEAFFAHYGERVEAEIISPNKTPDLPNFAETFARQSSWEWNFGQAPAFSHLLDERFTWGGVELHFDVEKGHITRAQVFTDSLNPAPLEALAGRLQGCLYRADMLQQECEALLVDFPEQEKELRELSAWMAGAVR

As usually defined, the Km is the substrate concentration at which the rate is half of its maximum. Usually kcat stands for the number of substrate molecules converted per active site and unit of time at saturation. For the sequence DEVLVEIETDKAVLEVPGGEEE [LAP1], in test [1] (read-out: Km (estimated), LAP1, estimated, measured by HPLC, data not shown), the Michaelis constant (Km) was above 200 µM. Moreover, in test [2], the “yeast remaining after one round of selection” value was “could not be detected”. Further, the kcat in test [3] is 0.048 ± 0.001 s⁻¹. Besides, the “ligation of lipoic acid, alkyl azide, aryl azide” value in test [4] (LAP1 fusion proteins) is “in vitro and in cell lysate, but not on the cell surface except under conditions of high LAP1-POI over-expression”. Also, in test [4] (LAP1 fusions), the “labeling at the cell surface” value is on record as “difficult to label at the cell surface”; the “ligation of bromoalkanoic acid and coumarin” value is on record as “could not be ligated to LAP1 fusions in any context”.

In general, kcat/Km refers to the second-order rate constant that governs catalysis at low substrate concentration. As for GFEIDKVWYDLDA [LAP2], in test [1] (LAP2 versus natural acceptor proteins), the “kcat/Km fold worse than natural lipoate and biotin acceptor proteins” value was 8 fold. Besides, the “kcat/Km fold better than LAP1” value in test [1] (LAP2 versus previous rationally-designed 22-amino acid LAP1) is reported as above 70 fold. The kcat/Km in test [1] (lipoylation of synthetic LAP2 peptide, 50 nM LplA, 750 μM lipoic acid, 2 mM ATP, 5 mM magnesium acetate in DPBS, 30 °C, LAP2 5.5-352 μM, HPLC, Michaelis-Menten) worked out at 0.99 µM⁻¹ min⁻¹. In test [5] (CFP-TM fusions in HEK cells, average signal ratios, Figure S5B), the “cell surface lipoylation compared with E2p” value is given as “comparable even to E2p”. In test [5] (even at low expression levels), the “cell surface lipoylation of fusion proteins” value is “could easily lipoylate cell surface LAP2 fusion proteins, even at low expression levels”. Moreover, the “conversion to lipoylated product, C-terminal HP1 fusion” value in test [6] was “decreased somewhat, but was still higher than all other LAP sequences at the N-terminus”. Further, the “biotinylation by BirA” value in test [7] is listed as “no biotinylation”. Moreover, the “recognition by LplA by position in fusion” value in test [4] (LAP2) is “can be recognized by LplA at the N-terminus, C-terminus, and internally”. Also, the “labeling in the cytosol / inside living cells” value in test [4] is listed as “allows fluorophore tagging of intracellular proteins”. For the same sequence, the cell surface expression entry in test [8] is “clear cell surface expression”.
